The source of these data is article PMC2709563 (Nucleic Acids Research, 2009).

This test has as its target Klenow fragment of DNA polymerase I (Escherichia coli, UniProt P00582). Description: competitive fluorescence anisotropy displacement of dtC^OTP. The format is binding. Background: Polarisation of emitted light reports the rotation of a fluorescent probe.

Klenow fragment of DNA polymerase I, sequence (P00582 324-928 limits assumed): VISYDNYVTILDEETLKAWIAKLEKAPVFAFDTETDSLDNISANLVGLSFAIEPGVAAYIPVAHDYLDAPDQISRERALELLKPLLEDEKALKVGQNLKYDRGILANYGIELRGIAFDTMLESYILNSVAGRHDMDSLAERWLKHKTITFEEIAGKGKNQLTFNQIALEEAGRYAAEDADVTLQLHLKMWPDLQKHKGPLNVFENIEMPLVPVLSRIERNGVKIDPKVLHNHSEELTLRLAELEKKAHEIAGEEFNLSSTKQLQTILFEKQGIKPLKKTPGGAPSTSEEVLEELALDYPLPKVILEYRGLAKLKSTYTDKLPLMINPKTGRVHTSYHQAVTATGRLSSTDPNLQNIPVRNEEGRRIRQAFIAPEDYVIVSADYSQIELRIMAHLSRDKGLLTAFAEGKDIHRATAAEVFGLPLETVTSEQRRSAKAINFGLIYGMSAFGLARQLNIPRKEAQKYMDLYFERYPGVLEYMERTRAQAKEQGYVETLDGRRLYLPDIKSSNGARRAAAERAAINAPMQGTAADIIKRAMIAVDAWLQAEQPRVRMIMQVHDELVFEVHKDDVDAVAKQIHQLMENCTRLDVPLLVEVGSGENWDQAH

Usually IC50 stands for the concentration at which inhibition is half-maximal. Read a low IC50 as greater potency. Compound `Nc1ccn([C@H]2C[C@H](O)[C@@H](COP(=O)(O)OP(=O)(O)OP(=O)(O)O)O2)c(=O)n1` [dCTP] yielded an IC50 of 3.4 µM.
